Series [1] deals with osteosarcoma MG63 cells. More on the design: method as in PMID 25856666. The conditions noted are these: cited from earlier work.
Series [2] concerns Vero cells. Nature of the series: MTT cytotoxicity in Vero cells (maximum non-toxic concentration). The conditions noted are these: 24 h, up to 100 µM.
Experimental: The antiviral effect of complexes against HSV-2 was screened using Vero cells (originally isolated from kidney epithelial cells) to host the growing viruses.
HeLa 229 cells (ATCC) and Vero cells (ATCC) were cultured in minimal essential medium (MEM) (Sigma, Steinheim, Germany) with Earle salts supplemented with 10% heat-inactivated fetal bovine serum (FBS) (Gibco; ThermoFisher Scientific, Inc., Waltham, MA, USA), 2 mM L-glutamine, 1× non-essential amino acids, 8 mM HEPES, 25 μg/mL gentamycin and 1 µg/mL fungisone. The cells were incubated for 1 h at room temperature to reduce the edge effect and then overnight at 37 °C, 5% CO2 to obtain a 90% confluent cell layer.
The density of cells was 4 × 10^4 cells/well in 100 µL of MEM with Earle salts supplemented with 10% heat-inactivated FBS, 2 mM L-glutamine, 1× MEM vitamins, 1× non-essential amino acids, 0.005% Na-pyruvate, 25 µg/mL gentamycin, 1 µg/mL fungisone). The plates were incubated for 1 h room temperature and then overnight at 37 °C, 5% CO2. Next day, when the cells reached a ~90% confluency, the medium was supplemented with the serial 2-fold dilutions of the complexes in three parallel wells for each concentration. […] After 24 h incubation for Vero cells and 48 h incubation for HeLa cells, 10 µL of the MTT (Sigma, Steinheim, Germany) labelling reagent (final concentration 0.5 mg/mL) was added to each well and the plate was incubated for 4 h at 37 °C, 5% CO2. After the incubation, 100 µL of the solubilisation solution (10% SDS in 1 M HCl) was added into each well, and the plate was allowed to stand overnight in the incubator at 37 °C, 5% CO2.
Series [3] deals with ABCB1 (P-glycoprotein) efflux pump (Homo sapiens, UniProt P08183). The series can be described thus: Rhodamine 123 uptake/retention fluorescence assay (flow cytometry) in Colo 320 cells. Here is the method: It is important to note, that the resistance of this cell line is primarily mediated by the overexpression of the ABC-transporter P-glycoprotein, which pumps out xenobiotics from the cytosol. […] This dye is membrane-permeable and is rapidly taken up by the cells; therefore, it can be effectively used for the screening of efflux pump inhibiting compounds. […] Then the fluorescence accumulation ratios (FAR) were calculated (Figure 1) according to the equation given in the Materials and Methods section. Verapamil was used as a reference inhibitor compound.
This fluorescence-based detection system uses verapamil (a first-generation, competitive EPI) as reference inhibitor. […] The tested compounds were added at different concentrations (2 and 20 µM; from 1 and 10 mM stock solutions, respectively) and the samples were incubated for 10 min at room temperature.
The parameters evaluated from flow cytometric experiments are forward scatter count (FSC, provides information about cell size); side scatter count (SSC, proportional to cell granularity or internal complexity); mean fluorescence of the cells (FL-1) and the computed FAR and FAR quotients (Table S1).
Background: A flow cytometer gives signals particle by particle.

A short description of series [4]: Shake-flask n-octanol/water distribution coefficient. Format: physicochemical. The conditions noted are these: 25.0 °C, 20 mM phosphate buffer.
Experimental: (§1) Chloride ion concentrations of 4, 24 and 100 mM were chosen according to the chloride content of the nucleus, cytosol and blood serum, respectively. […] Then parallel artificial membrane permeability assay (PAMPA) was used to estimate the ability of the complexes to penetrate membranes by passive diffusion and the effective passive permeability coefficients (Peff) obtained for complexes 1–3 are shown in Table 4 (in case of 4, there are no data due to formation of precipitate).
(§2) Distribution coefficients at physiological pH (D7.4) of the complexes were determined by the traditional shake-flask method in n-octanol/buffered aqueous solution at pH 7.40 (20 mM phosphate buffer) at various chloride concentrations and at 25.0 ± 0.2 °C using UV-vis detection as described in our former works [37, 38, 42]. PAMPA was applied for the complexes with a Gentest pre-coated PAMPA Plate System (Corning, Corning, NY, USA) [56]. Briefly, a 96-well filter plate was used as the permeation acceptor and the 96-well bottom plate was used as the permeation donor. For simplicity, PBS was used both as donor and acceptor buffer throughout this study. […] Peff values were calculated according to the equation reported by Yu et al. [57].
The nature of series [5]: Solution stability and speciation (UV-vis, 1H-NMR, pH-potentiometry). Conditions: for logK formation constant: suggested on the basis of pH-potentiometric data; for pH-dependent stability, UV-vis spectra: pH range 2–11, 24 h. The method, then: In order to confirm our prediction, time-dependent UV-visible (UV-vis) spectra were recorded for complexes 5–8 at pH 7.4 in aqueous solution (in modified phosphate buffered saline (PBS) buffer—PBS’) and in Eagle’s minimum essential medium (EMEM) used for the cytotoxicity studies in the presence of 2% (v/v) dimethyl sulfoxide (DMSO). […] Additionally, ^1H-NMR spectra were recorded for more water-soluble complexes 6–8.
In order to compare the stability of 1 and 3 at physiological pH, a serial dilution was made and UV-vis spectra were recorded in a wide concentration range (10 μM–3 mM) (Figure S10).
Titrations were performed in a carbonate-free KOH solution (0.20 M). The exact concentration of HCl and KOH solutions was determined by pH-potentiometric titrations.
The path length (l) was usually 1 cm, and 2, 5, 20 or 50 mm cells were used occasionally. Equilibrium constants (proton dissociation, stability constants, conditional stability constants (K’7.4) for the formation of mim adducts) and the individual spectra of the species were calculated with the computer program PSEQUAD [55]. The spectrophotometric titrations were performed in aqueous solution of the complexes at 25.0 ± 0.1 °C at an ionic strength of 0.20 M (KCl). Spectrum of the solution of 200 μM complex upon addition of one or two equivalents of its own ligand or phen was also measured at pH 7.4. UV-vis spectra recorded for the complexes as a function of chloride concentrations or PTA (in case of the chlorido complexes) were used to investigate the co-ligand exchange processes at pH 7.4. […] In some cases, the measurements were performed in the presence of 1–2% (Cl^−/PTA exchange reactions) or 6–8% (v/v) (interaction of mim with complexes 2, 4) DMSO.
^1H-NMR stability studies were carried out on a Bruker Avance III HD 500 MHz instrument. All ^1H-NMR spectra were recorded on samples containing 10% (v/v) D2O with the WATERGATE water suppression pulse scheme using DSS internal standard. Stability of complexes 6–8 was checked over time by ^1H-NMR spectroscopy at 500 μM in PBS’ or in EMEM (with 10% (v/v) DMSO-d6).

Series [6] can be described thus: UV-vis interaction with 1-methylimidazole, monodentate binding model of HSA. Conditions: pH 7.4, 102 mM chloride. Here is the method: In our previous work, the fast interaction of complexes 7 and 8 with thiol-containing low molecular mass endogenous compounds Cys, N-acetylcysteine and glutathione was found on the basis of a mass spectrometry study. The donor atoms generally coordinate at the site of the monodentate co-ligand, however, they can also displace the weakly bound bidentate ligand as well. Herein, interaction of the complexes 1–4 towards 1-methylimidazole (mim), a monodentate binding model of HSA was measured by UV-vis (Figure 7d–f).
The reactions in all cases were very fast (except complex 2 and 4), and the observed spectral changes were similar to those obtained with HSA (Figure 7a–c). There was no indication for the replacement of the bidentate ligand by 1-methylimidazole. Considering that the latter ligand binds at the coordination site of the co-ligand, maximum one complex is able to be bound to 1-methylimidazole. However, the constant spectra upon addition of 1-methylimidazole to the complex 4 could only be reached at high excess of 1-methylimidazole due to its lower tendency to interact with this model (and with HSA as well). Based on these spectral changes, conditional binding constants were calculated for the formation of the 1-methylimidazole adducts. […] The protecting role of PTA in ligand-exchange processes for the complex pair 7 and 8 was also reported regarding their interaction with thiols or protein NCp7 [46, 47].

A short description of series [7]: Parallel artificial membrane permeability assay (PAMPA). The conditions noted are these: for recovery: pH 7.4; for Peff, effective passive permeability: pH 7.4, 100 mM chloride, 5 h.
Experimental: as §1, §2

Sequence of ABCB1 (P-glycoprotein) efflux pump (P08183 whole entry): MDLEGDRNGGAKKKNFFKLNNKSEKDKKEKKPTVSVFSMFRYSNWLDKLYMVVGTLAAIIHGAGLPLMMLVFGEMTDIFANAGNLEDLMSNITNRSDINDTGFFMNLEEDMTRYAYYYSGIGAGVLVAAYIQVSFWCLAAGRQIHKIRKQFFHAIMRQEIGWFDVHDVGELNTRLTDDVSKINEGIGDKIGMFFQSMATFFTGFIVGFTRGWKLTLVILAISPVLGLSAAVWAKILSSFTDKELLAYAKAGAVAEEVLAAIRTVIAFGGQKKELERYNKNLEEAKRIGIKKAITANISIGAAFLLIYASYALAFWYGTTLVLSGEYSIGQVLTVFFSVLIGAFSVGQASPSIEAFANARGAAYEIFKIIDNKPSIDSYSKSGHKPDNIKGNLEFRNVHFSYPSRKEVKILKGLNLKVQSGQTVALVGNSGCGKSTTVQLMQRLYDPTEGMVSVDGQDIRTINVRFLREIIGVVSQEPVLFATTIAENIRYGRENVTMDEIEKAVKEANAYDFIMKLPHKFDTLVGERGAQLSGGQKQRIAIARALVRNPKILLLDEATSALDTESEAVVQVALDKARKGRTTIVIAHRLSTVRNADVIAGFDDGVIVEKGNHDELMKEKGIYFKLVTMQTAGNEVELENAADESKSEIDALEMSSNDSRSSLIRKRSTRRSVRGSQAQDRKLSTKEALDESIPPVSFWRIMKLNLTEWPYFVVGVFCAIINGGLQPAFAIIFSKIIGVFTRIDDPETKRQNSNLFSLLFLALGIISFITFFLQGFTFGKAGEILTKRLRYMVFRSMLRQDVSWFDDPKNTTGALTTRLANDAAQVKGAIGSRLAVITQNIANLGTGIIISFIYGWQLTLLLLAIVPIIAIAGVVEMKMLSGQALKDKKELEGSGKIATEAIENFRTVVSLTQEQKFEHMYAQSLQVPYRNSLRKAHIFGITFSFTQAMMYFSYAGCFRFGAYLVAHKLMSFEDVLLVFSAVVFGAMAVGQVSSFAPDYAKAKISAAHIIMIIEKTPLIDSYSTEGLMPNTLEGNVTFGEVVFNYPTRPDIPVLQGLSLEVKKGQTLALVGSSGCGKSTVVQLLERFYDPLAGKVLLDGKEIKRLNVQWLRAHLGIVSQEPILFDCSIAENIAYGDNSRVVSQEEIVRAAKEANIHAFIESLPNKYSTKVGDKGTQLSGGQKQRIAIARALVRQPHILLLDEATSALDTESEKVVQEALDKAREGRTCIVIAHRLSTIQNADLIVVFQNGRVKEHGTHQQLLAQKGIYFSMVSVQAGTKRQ

As usually defined, the IC50 is the midpoint of a concentration-inhibition curve. Consider `C1N2CN3CN1CP(C2)C3.Cc1ccc(C(C)C)cc1.F[P-](F)(F)(F)(F)F.O=C(C=C([O-])C(F)(F)F)c1ccc(Cl)cc1.[Ru+2]` [complex 8], for which the IC50 in series [1] is 41 µM. For the same compound, the “toxicity in Vero cells” value in series [2] was “did not produce significant toxicity at any of the concentrations”. In series [3] (Colo 320, 2 μM), the “FAR fluorescence accumulation ratio” value is on record as 0.66, the “FAR quotient (FAR related to that of 20 μM verapamil)” value (from here on “FAR quotient”) amounted to 13.8%, the “FSC forward scatter count” value worked out at 1925 and the “SSC side scatter count” value is given as 877. In addition, in series [3] (Colo 320, 20 μM), the “FAR fluorescence accumulation ratio” value came out at 1.08, the “FAR quotient” value was found to be 22.4%, the “FSC forward scatter count” value stood at 1950 and the “SSC side scatter count” value stood at 917. Also, the “FL-1 mean fluorescence of the cells” value in series [3] (Colo 320, rhodamine 123, 2 μM) is given as 3.51. The “FL-1 mean fluorescence of the cells” value in series [3] (Colo 320, rhodamine 123, 20 μM) is recorded as 5.68.

For `Cc1ccc(C(C)C)cc1.[Cl-].[O-]n1ccccc1=S.[Ru+2]` [complex 1], the logD7.4 in series [4] (pH 7.4, c(KCl) 4 mM) is given as −0.43 ± 0.09; in series [4] (pH 7.4, c(KCl) 24 mM), −0.10 ± 0.05; in series [4] (pH 7.4, c(KCl) 100 mM) it was “+0.31 ± 0.03”. In series [5] (1H-NMR, pH 1.0, 24 h, 200 mM chloride), the “fraction of unbound Ru(η6-p-cymene)” value is recorded as below 3%. Further, in series [5], the logK formation constant was above 8. Further, the “LogK’ conditional binding constant of 1-methylimidazole adduct” value (“LogK’ conditional binding constant” for short) in series [6] stood at 4.16 ± 0.45. This compound came in with a recovery in series [7] of 1.3%. In series [7], the “Peff, effective passive permeability” value amounted to 1.13 ×10⁻⁶ cm/s.

For `C1N2CN3CN1CP(C2)C3.Cc1ccc(C(C)C)cc1.F[P-](F)(F)(F)(F)F.[O-]n1ccc2ccccc2c1=S.[Ru+2]` [complex 4], the “pH-dependent stability, UV-vis spectra” value in series [5] is “stayed unchanged”. Moreover, in series [3] (Colo 320, 2 μM), the “FAR fluorescence accumulation ratio” value stood at 0.82, the “FAR quotient” value was 17.0%, the “FSC forward scatter count” value is on record as 2014 and the “SSC side scatter count” value is reported as 959. For the same compound, in series [3] (Colo 320, 20 μM), the “FAR fluorescence accumulation ratio” value was determined as 1.70, the “FAR quotient” value worked out at 35.2%, the “FSC forward scatter count” value is recorded as 1977 and the “SSC side scatter count” value amounted to 973. Moreover, in series [3] (Colo 320, rhodamine 123, 2 μM), the “FL-1 mean fluorescence of the cells” value came to 4.33. In series [3] (Colo 320, rhodamine 123, 20 μM), the “FL-1 mean fluorescence of the cells” value is listed as 8.95. Moreover, the “LogK’ conditional binding constant” value in series [6] was determined as 3.64 ± 0.02.

In the case of `C1N2CN3CN1CP(C2)C3.Cc1ccc(C(C)C)cc1.F[P-](F)(F)(F)(F)F.[O-]n1ccccc1=S.[Ru+2]` [complex 2], the “pH-dependent stability, UV-vis spectra” value in series [5] is on record as “stayed unchanged”. In series [3] (Colo 320, 2 μM), the “FAR fluorescence accumulation ratio” value is reported as 1.02, the “FAR quotient” value turned out to be 21.3%, the “FSC forward scatter count” value came to 2034 and the “SSC side scatter count” value is 962. Moreover, in series [3] (Colo 320, 20 μM), the “FAR fluorescence accumulation ratio” value was determined as 1.02, the “FAR quotient” value is recorded as 21.3%, the “FSC forward scatter count” value amounted to 2071 and the “SSC side scatter count” value is reported as 1024. Further, the “FL-1 mean fluorescence of the cells” value in series [3] (Colo 320, rhodamine 123, 2 μM) is recorded as 5.4. The “FL-1 mean fluorescence of the cells” value in series [3] (Colo 320, rhodamine 123, 20 μM) is on record as 5.41. Also, in series [7], the recovery was found to be 15% and the “Peff, effective passive permeability” value is 2.88 ×10⁻⁶ cm/s.

As for `Cc1ccc(C(C)C)cc1.[Cl-].[O-]n1ccc2ccccc2c1=S.[Ru+2]` [complex 3], the logD7.4 entry is “+0.92 ± 0.06” in series [4] (pH 7.4, c(KCl) 4 mM); “+1.22 ± 0.04” in series [4] (pH 7.4, c(KCl) 24 mM); “+1.37 ± 0.06” in series [4] (pH 7.4, c(KCl) 100 mM). Moreover, in series [5], the logK formation constant is above 8. For the same compound, the “LogK’ conditional binding constant” value in series [6] was found to be 4.18 ± 0.27. Also, in series [7], the recovery came out at 8.1%. The “Peff, effective passive permeability” value in series [7] was determined as 3.35 ×10⁻⁶ cm/s.

For the compound `Cc1ccc(C(C)C)cc1.O=C(C=C([O-])C(F)(F)F)c1ccc(Cl)cc1.[Cl-].[Ru+2]` [complex 7], the IC50 in series [1] was 64 µM. Also, the “toxicity in Vero cells” value in series [2] is given as “did not produce significant toxicity at any of the concentrations”. In series [3] (Colo 320, 2 μM), the “FAR fluorescence accumulation ratio” value is listed as 1.11, the “FAR quotient” value is 23.1%, the “FSC forward scatter count” value is 1988 and the “SSC side scatter count” value is listed as 946. In series [3] (Colo 320, 20 μM), the “FAR fluorescence accumulation ratio” value came to 1.31, the “FAR quotient” value is given as 27.3%, the “FSC forward scatter count” value is listed as 1909 and the “SSC side scatter count” value came to 900. The “FL-1 mean fluorescence of the cells” value in series [3] (Colo 320, rhodamine 123, 2 μM) is on record as 5.86. Also, in series [3] (Colo 320, rhodamine 123, 20 μM), the “FL-1 mean fluorescence of the cells” value is given as 6.94.

Source of the values: article PMC8226722, “Comparison of Solution Chemical Properties and Biological Activity of Ruthenium Complexes of Selected β-Diketone, 8-Hydroxyquinoline and Pyrithione Ligands” (Pharmaceuticals, 2021).
